Measurements published in patent US6375946B1, “Enhanced activation of natural killer cells using an NK cell activator and a hydrogen peroxide scavenger or inhibitor” (Maxim Pharmaceuticals, Inc., priority 1994, dated 2002).

Key:
[1] = tested on: NK cells (cytotoxicity against K562 target cells); test: cells; settings: for reversal of inhibition of NK cells induced by H2O2: catalase 20 U/ml, data not shown; for time of addition at which the NK cell suppressive signal is inhibited: histamine 10^−4 M or catalase 20 U/ml added at time points after assay start; for effect on NK-cell-mediated killing of tumor cells in the absence of monocytes: no monocytes, NK cells unactivated or IL-2 activated
Description: Using blood obtained from a healthy human blood donor, we studied the effects of catalase on NK cell-mediated killing of tumor cells. K562 cells, from an NK sensitive erythroleukemic cell line, were used as target cells in all experiments. Washed cells (10×10^6 cells/ml) were incubated with ^51Cr (Amersham) at a concentration of 150 FCi/ml cell suspension for 2-4 hours. After centrifugation and resuspension in cell culture medium, 10^4 cells in 50 FL portions were added to the effector cells in microplate wells.
In the first set of experiments, human NK cells alone (1.5×10^5 cells/well) were added to the K562 target cells. […] The cells were then exposed to catalase (Boehringer-Mannheim) at concentrations of 0 to 100 U/ml. These same conditions were repeated using human NK cells admixed with 30% human peripheral blood monocytes, recovered by centrifugal elutriation, added to the target K562 cells.
After incubation at 37EC for 16 hours, supernatant fluids were collected by a tissue collecting system (Amersham) and assayed for radioactivity in a gamma counter. Maximum ^51Cr release was determined in target cell cultures treated with Triton-X. NK cell cytotoxicity was calculated as cell lysis % according to the following formula: [formula]
To study the relationship between the monocyte-derived inhibitory signal and the respiratory burst activity of monocytes, we added catalase and various other scavengers of reactive oxygen metabolites to NK cells, alone or admixed with monocytes. We then measured the cytotoxicity of the NK cells against NK cell sensitive K562 target cells as described above.
Cell culture medium (control), histamine (10^−4 M), or catalase (20 U/ml), was added to either enriched NK cells alone or a mixture of NK cells and monocytes (1.5×10^5 cells/well). These mixtures were then incubated with K562 target cells in sextuplicate in microplates in a total volume of 200 Fl and assayed for microcytotoxicity.
Culture medium (control) or H2O2 at concentrations between 0-10 FM was added to NK cell enriched lymphocytes for assay of cytotoxicity against ^51Cr K562 target cells as described above.
MPO (100 U/ml) and H2O2 at concentrations between 0-10 FM were added to NK cell enriched lymphocytes for assay of cytotoxicity against ^51Cr K562 target cells as described above.
A mixture of enriched NK cells and monocytes were treated with culture medium (control), histamine (10^−4 M), or catalase (20 U/ml) and assayed for microcytotoxicity against target K562 cells as described above in connection with Example 1. […] The data shown is cell lysis % ±s.e.m. of sextuplicates.

monocytes = test: Luminol-enhanced chemiluminescence (respiratory burst) of elutriated monocytes; assay type: cell-based, human
Description: Formylmethionyl-leucyl-phenylalanine was dissolved to 10^−2 M in dimethyl sulfoxide and subsequently diluted in Krebs-Ringer phosphate buffer supplemented with glucose (10 mM), Ca^2+ (1 mM), and Mg^2+ (1.5 mM).
In a second set of experiments, effects of histamine and H2R-interactive compounds on the respiratory burst activity, as measured by the luminol-enhanced CL response of enriched, elutriated monocytes, were studied. Monocytes were treated with culture medium (control), histamine (10^−5 M), sodium azide (10^−5 M), or histamine and sodium azide as described below. Emission of CL was recorded after addition of fMLP at time=0.
To assess whether histamine acted by inhibiting the generation of H2O2 or by reducing the availability of peroxidase, we next studied the effects of histamine in monocytes treated with sodium azide to inhibit endogenous myeloperoxidase (MPO) and with exogenous, azide-insensitive peroxidase (HRP) in excess.
To exclude non-specific effects of ranitidine, we used a ranitidine analog (AH20239AA; […]; Glaxo) in which the thioether of ranitidine is replaced by an ether, thereby strongly reducing its H2R antagonist properties. In these experiments, monocytes were treated with histamine (10^−5 M) together with ranitidine or AH20239AA at final concentrations indicated in FIG. 7. All cells were treated with fMLP at time=0. Peak CL recorded in untreated monocytes (control) was 2.5×10^7 cpm.

RBC = tested on: RBC
Description: (§1) Further, we used an assay system in which lysis of elutriated , ^51Cr -labelled RBC was measured in microplates.

NK cells = test: IL-2-induced NK cell proliferation (3H-methyl-thymidine incorporation); assay type: cell-based, human; settings: histamine 10^−4 M or catalase 20 U/ml, IL-2 50 U/ml, 48 hours
Description: During the last 8 hours of incubation, cells were pulsed with ^3H-methyl-thymidine (specific activity […]; New England Nuclear Corp.; 1 FCi/2×10^5 cells). Following incubation, the cells were collected on glass fiber filters with an automatic cell harvester and cell-incorporated ^3H-methyl-thymidine was estimated by liquid scintillography.

[2] = histamine 10^−4 M, cell free
Description: The reaction mixture contained 0.8 ml elutriated monocytes (5×10^6 cells/ml).
as §1

[3] = tested on: YAC-1 mouse lymphoma cells; test: NK cell-mediated clearance of 51Cr-labeled YAC-1 lymphoma cells from lungs in vivo; parameters: species or system Swiss Albino mice; settings: 100 U/kg intravenously, 2 hours, four experiments
Description: FIG. 2 graphically depicts the activation of NK cell-mediated clearance of YAC-1 lymphoma cells in vivo by catalase. Seventy-five thousand YAC-1 cells labeled with ^51Cr were injected intravenously into male or female 4-6-week-old Swiss Albino mice, together with vehicle (control; open bars) or catalase (100 U/kg; filled bars). Two hours after the inoculation of tumor cells, the mice were sacrificed by cervical dislocation. […] Results from 4 separate experiments are shown. Each bar represents the mean “s.e.m. of 3-5 animals.
Seventy-five thousand ^51Cr-labeled, NK cell-sensitive YAC-1 mouse lymphoma cells were injected intravenously into male or female 4 to 6 week old Swiss Albino mice, together with vehicle (control) or 100 U/kg catalase. Two hours after inoculation with the tumor cells, the mice were sacrificed by cervical dislocation. The lungs were removed and placed in test tubes in a gamma-counter, and the radioactivity in the lung tissue was measured. The radioactivity in lung tissue is an inverse measure of NK cell-mediated killing of tumor cells in vivo (see Hanna et al., JNCI 65:801 (1980)), and is expressed as a percent of the ^51Cr that is retained in lungs immediately after inoculation of radiolabeled tumor cells.

[4] = tested on: NK cells (cytotoxicity against K562 target cells)
Description: In additional experiments, NK cell enriched lymphocytes were pretreated in petri dishes with culture medium (control), catalase or histamine, in the concentrations indicated below in Table II, in the presence or absence of monocytes. After 1 hour incubation, nonadherent lymphocytes were recovered, washed twice, and assayed for cytotoxicity as described above. We wished to determine whether the NK cell inhibitory signal was reversible by removal of monocytes and removal of monocyte-derived products. […] Data are cell lysis % ±s.e.m. of sextuplicates and are the results of 2 separate experiments.

NCCS(=O)(=O)O [taurin]
effect on monocyte-induced inhibition of baseline NK cell cytotoxicity [1]: ineffective

CN(C)CCSC(=N)N [nor-dimaprit]
effect on the respiratory burst of monocytes (H2R-interactive compounds) (monocytes): ineffective

CC(=O)N(O)CCCCCNC(=O)CCC(=O)N(O)CCCCCNC(=O)CCC(=O)N(O)CCCCCN [deferox, deferoxamine]
effect on monocyte-induced inhibition of baseline NK cell cytotoxicity [1]: ineffective

NCCc1c[nH]cn1 [histamine]
effect on level of RBC killing induced by H2O2 (RBC; histamine 10^−4 M): did not alter | time to block respiratory burst activity (monocytes; data not shown): within seconds | effect on burst activity of unstimulated monocytes and induction of burst by fMLP (monocytes; histamine 10^−5 M): effectively inhibited | effect on fMLP induced CL response with sodium azide and exogenous HRP in excess (monocytes; sodium azide 10^−5 M, HRP): inhibited | effect on monocyte-induced inhibition of baseline NK cell cytotoxicity [1]: abrogated | concentration at which histamine abrogates monocyte induced suppression of NK cells ([1]; NK cells with monocytes): exceeding 10^−7 M | reversal of inhibition of NK cells induced by H2O2 [1]: not | effect of histamine on monocyte induced suppression of NK cells in the presence of catalase ([1]; catalase present): ineffective | time of addition at which the NK cell suppressive signal is inhibited [1]: within the first hour | reversal of monocyte-induced inhibition of IL-2-induced NK cell proliferation (NK cells): effectively reverse | CL recorded with H2O2 and/or MPO or H2O2 and HRP [2]: unchanged

catalase
effect on monocyte-induced inhibition of baseline NK cell cytotoxicity [1]: completely abrogate | concentration at which catalase reverses the monocyte suppressive signal ([1]; NK cells with monocytes): exceeding 10 U/ml | concentration at which catalase reverses the monocyte suppressive signal ([1]; NK cells with monocytes, listed as Catalase): exceeding 5 U/ml | reversal of inhibition of NK cells induced by H2O2 [1]: completely reversed | time of addition at which the NK cell suppressive signal is inhibited [1]: within the first hour | effect on NK-cell-mediated killing of tumor cells in the absence of monocytes [1]: does not affect | effect on NK-cell-mediated killing of tumor cells in the absence of monocytes ([1]; listed as Catalase): had no effect | reversal of monocyte-induced inhibition of IL-2-induced NK cell proliferation (NK cells): effectively reverse | NK cell-mediated killing of YAC-1 lymphoma cells in vivo (retained lung radioactivity) [3]: augmented

OO [H2O2, hydrogen peroxide]
lysis of RBC (RBC; H2O2 5×10^−5 M, 10^5 RBC): approximately 50% | effect on cytotoxicity of enriched NK cells [1]: effectively suppressed | EC50 ([1]; Homo sapiens, K562, read-out: ED50 of suppression of NK cell cytotoxicity): ~2000 nM | inhibition of NK cell cytotoxicity after pretreatment and washing [4]: sufficient to effectively inhibit

superoxide dismutase [SOD]
effect on monocyte-induced inhibition of baseline NK cell cytotoxicity [1]: did not alter

CNC(=C[N+](=O)[O-])NCCOCc1ccc(CN(C)C)o1 [AH20239AA]
potency relative to ranitidine in antagonizing inhibition of respiratory burst activity by histamine (fold less potent) (monocytes; histamine 10^−5 M): more than 100 fold | potency relative to ranitidine in antagonizing effects of histamine on suppression of NK cell function by monocytes (fold less potent) [1]: more than 100 fold

OC[C@@H](O)[C@@H](O)[C@H](O)[C@H](O)CO [mannitol]
effect on monocyte-induced inhibition of baseline NK cell cytotoxicity [1]: ineffective

CN(C)CCCSC(=N)N [Dimaprit]
effect on the respiratory burst of monocytes (H2R-interactive compounds) (monocytes): mimicked the effect of histamine | incubation time until effect on respiratory burst is maximal (monocytes; data not shown): 10 to 15 min

B1: myeloperoxidase (protein, UniProt P05164 165-745, looked up)
Myeloperoxidase: VTCPEQDKYRTITGMCNNRRSPTLGASNRAFVRWLPAEYEDGFSLPYGWTPGVKRNGFPVALARAVSNEIVRFPTDQLTPDQERSLMFMQWGQLLDHDLDFTPEPAARASFVTGVNCETSCVQQPPCFPLKIPPNDPRIKNQADCIPFFRSCPACPGSNITIRNQINALTSFVDASMVYGSEEPLARNLRNMSNQLGLLAVNQRFQDNGRALLPFDNLHDDPCLLTNRSARIPCFLAGDTRSSEMPELTSMHTLLLREHNRLATELKSLNPRWDGERLYQEARKIVGAMVQIITYRDYLPLVLGPTAMRKYLPTYRSYNDSVDPRIANVFTNAFRYGHTLIQPFMFRLDNRYQPMEPNPRVPLSRVFFASWRVVLEGGIDPILRGLMATPAKLNRQNQIAVDEIRERLFEQVMRIGLDLPALNMQRSRDHGLPGYNAWRRFCGLPQPETVGQLGTVLRNLKLARKLMEQYGTPNNIDIWMGGVSEPLKRKGRVGPLLACIIGTQFRKLRDGDRFWWENEGVFSMQQRQALAQISLPRIICDNTGITTVSKNNIFMSNSYPRDFVNCSTLPALNLASWREAS
potentiation of the suppressive effect of H2O2 on NK cells ([1]; MPO 100 U/ml with H2O2 0-10 FM): did not potentiate | scavenging of H2O2 ([1]; MPO 100 U/ml with H2O2 0-10 FM): slightly but significantly scavenged
